Experimental data taken from US6218393A, “Anthranilic acid derivatives as multi drug resistance modulators” (priority 1997, dated 2001).

Columns and labels:
[1] = tested on: AR 1.0 cells; test: Drug accumulation assay: daunorubicin accumulation in AR 1.0 cells; assay type: cell-based; conditions: Mus musculus, 100% = accumulation with verapamil 100 μM, 1 hr, 37° C.
Method in brief: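 AR 1.0 is the MDR-resistant subline of EMT6 mouse mammary carcinoma, grown in RPMI 1640 with 10% foetal calf serum and 2 mM glutamine at 37 °C, 5% CO2. Cells were seeded 48 h before the daunorubicin accumulation assay.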

[2] = tested on: AR 1.0 cells; test: Potentiation of doxorubicin toxicity: proliferation assay (sulphorhodamine B); assay type: cell-based, mouse
Source text: (a) Selected compounds of formula (I) were examined for their ability to potentiate the toxicity of doxorubicin in AR 1.0 cells.

[3] = tested on: AR 1.0 cells; test: Potentiation index with doxorubicin titration; assay type: cell-based, mouse; conditions: for Potentiation Index at RMA concentration 100 nM: Table C2, RMA 100 nM; for Potentiation Index at RMA concentration 10 nM: Table C2, RMA 10 nM; for Potentiation Index at RMA concentration 30 nM: Table C2, RMA 30 nM
Method in brief: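 MDR-resistant mouse EMT6 subline AR 1.0 grown four days with a doxorubicin titration (0.263 nM-17.24 μM) plus a fixed compound concentration; proliferation by sulphorhodamine B. Potentiation index derived from doxorubicin IC50 alone versus with compound.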

[4] = Mus musculus, 96 h, compound alone, four day proliferation, read-out: Compound Toxicity (IC50)
[5] = with fixed doxorubicin 0.34 μm, four days, 5760 min, read-out: Toxicity with Cytotoxic Agent (IC50)

COc1cc2c(cc1OC)CN(CCc1ccc(NC(=O)c3cc(O)ccc3NC(=O)c3cnc4ccccc4n3)cc1)CC2 [compound 9554, Quinoxaline-2-carboxylic acid (2-{4-[2-(6,7-dimethoxy-3,4-dihydro-1H-isoquinolin-2-yl)-ethyl]-phenylcarbamoyl}-4-hydroxy-phenyl)-amide]
IC50 [1]: 990 nM
IC50 [2, 4]: 3000 nM
IC50 [2, 5]: 50 nM
Potentiation Index at RMA concentration 100 nM [3]: 90

COc1cc2c(cc1OC)CN(CCc1ccc(NC(=O)c3ccccc3NC(=O)c3ccc(C)nc3)cc1)CC2 [compound 9557, N-(2-{4-[2-(6,7-Dimethoxy-3,4-dihydro-1H isoquinolin-2-yl)-ethyl]-phenylcarbamoyl}phenyl)-6-methyl-nicotinamide]
IC50 [1]: 12 nM
IC50 [2, 4]: 9000 nM
IC50 [2, 5]: 20 nM
Potentiation Index at RMA concentration 10 nM [3]: 1.2
Potentiation Index at RMA concentration 100 nM [3]: 100

COc1cc2c(cc1OC)CN(CCc1ccc(NC(=O)c3ccc(C(F)(F)F)cc3NC(=O)c3cnc4ccccc4n3)cc1)CC2 [compound 9561, Quinoxaline-2-carboxylic acid (2-{4-[2-(6,7-dimethoxy-3,4-dihydro-1H-isoquinolin-2-yl)-ethyl]-phenylcarbamoyl}-5-trifiuoromethyl-phenyl)-amide]
IC50 [1]: 55 nM
IC50 [2, 4]: 13000 nM
IC50 [2, 5]: 10 nM
Potentiation Index at RMA concentration 10 nM [3]: 14
Potentiation Index at RMA concentration 30 nM [3]: 60
Potentiation Index at RMA concentration 100 nM [3]: 100

COc1cc2c(cc1OC)CN(CCc1ccc(NC(=O)c3c(F)cccc3NC(=O)c3cnc4ccccc4n3)cc1)CC2 [compound 9564, Quinoxaline-2-carboxylic acid (2-{4-[2-(6,7-dimethoxy-3,4-dihydro-1H-isoquinolin-2-yl)-ethyl]-phenylcarbamoyl}-3-fluoro-phenyl)-amide]
IC50 [1]: 200 nM
IC50 [2, 4]: 400 nM
IC50 [2, 5]: 8 nM
Potentiation Index at RMA concentration 100 nM [3]: 129

COc1cc2c(cc1OC)CN(CCCc1ccc(NC(=O)c3ccccc3NC(=O)c3cnc4ccccc4n3)cc1)CC2 [compound 9567, Quinoxaline-2-carboxyXic acid (2-{4-[3-(6,7-dimethoxy-3,4-dihydro-1H-isoquinolin-2-yl)-propyl]-phenylcarbamoyl}-phenyl)-amide]
IC50 [1]: 160 nM
IC50 [2, 4]: 1700 nM
IC50 [2, 5]: 28 nM
Potentiation Index at RMA concentration 10 nM [3]: 1.7
Potentiation Index at RMA concentration 30 nM [3]: 8
Potentiation Index at RMA concentration 100 nM [3]: 112

COc1cc2c(cc1OC)CN(CCc1ccc(NC(=O)c3cc(F)ccc3NC(=O)c3cnc4ccccc4n3)cc1)CC2 [compound 9568, Quinoxaline-2-carboxylic acid. (2-{4-[2-(6,7-dimethoxy-3,4-dihydro-1H-isoquinolin-2-yl)-ethyl]-phenylcarbamoyl}-4-fluoro-phenyl)-amide]
IC50 [1]: 17 nM
IC50 [2, 4]: 2800 nM
IC50 [2, 5]: 3.4 nM
Potentiation Index at RMA concentration 10 nM [3]: 23
Potentiation Index at RMA concentration 30 nM [3]: 60
Potentiation Index at RMA concentration 100 nM [3]: 88

COc1cc2c(cc1OC)CN(CCc1ccc(NC(=O)c3ccc(F)cc3NC(=O)c3cnc4ccccc4c3)cc1)CC2 [compound 9571, Quinoline-3-carboxylic acid (2-{4-[2-(6,7-dimethoxy-3,4-dihydro-1H-isoquinolin-2-yl)-ethyl]-phenylcarbamoyl}-5-fluoro-phenyl)-amide]
IC50 [1]: 22 nM
IC50 [2, 4]: 2000 nM
IC50 [2, 5]: 0.8 nM
Potentiation Index at RMA concentration 10 nM [3]: 38
Potentiation Index at RMA concentration 30 nM [3]: 100
Potentiation Index at RMA concentration 100 nM [3]: 100

COc1cc2c(cc1OC)CN(Cc1ccc(NC(=O)c3ccccc3NC(=O)c3cnc4ccccc4n3)cc1)CC2 [compound 9572, Quinoxaline-2-carboxylic acid {2-[4-(6,7-dimethoxy-3,4-dihydro-1H-isoquinolin-2-ylmethyl)-phenylcarbamoyl}-phenyl}-amide]
IC50 [1]: 53 nM
IC50 [2, 4]: 1700 nM
IC50 [2, 5]: 14 nM
Potentiation Index at RMA concentration 10 nM [3]: 2.7
Potentiation Index at RMA concentration 30 nM [3]: 25
Potentiation Index at RMA concentration 100 nM [3]: 83

COc1cc2c(cc1OC)CN(CCc1ccc(NC(=O)c3cc(OC)c(OC)cc3NC(=O)c3cnc4ccccc4n3)cc1)CC2 [compound 9573, Quinoxaline-2-carboxylic acid (2-{4-[2-(6,7-dimethoxy-3,4-dihydro-1H-isoquinolin-2-yl)-ethyl]-phenylcarbamoyl}-4,5-dimethoxy-phenyl)-amide]
IC50 [1]: 9.5 nM
IC50 [2, 4]: 4000 nM
Potentiation Index at RMA concentration 10 nM [3]: 83
Potentiation Index at RMA concentration 30 nM [3]: 94
Potentiation Index at RMA concentration 100 nM [3]: 100

COc1cc2c(cc1OC)CN(CCc1ccc(NC(=O)c3cc(F)ccc3NC(=O)c3cnc4ccccc4c3)cc1)CC2 [compound 9574, Quinoline-3-carboxylic acid (2-{4-[2-(6,7-dimethoxy-3,4-dihydro-1H-isoquinolin-2-yl)-ethyl]-phenylcarbamoyl}-4-fluoro-phenyl)-amide]
IC50 [1]: 19 nM
IC50 [2, 4]: 320 nM
Potentiation Index at RMA concentration 10 nM [3]: 16
Potentiation Index at RMA concentration 30 nM [3]: 60
Potentiation Index at RMA concentration 100 nM [3]: 94

O=C(Nc1ccccc1C(=O)Nc1ccc(CCN2CCc3ccccc3C2)cc1)c1cnc2ccccc2c1 [compound 9577, Quinoline-3-carboxylic acid (2-{4-[2-(3,4-dihydro-1H-isoquinolin-2-yl)-ethyl]-phenylcarbamoyl}-phenyl)-amide]
IC50 [1]: 320 nM
IC50 [2, 4]: 7700 nM
Potentiation Index at RMA concentration 10 nM [3]: 2.2
Potentiation Index at RMA concentration 30 nM [3]: 18
Potentiation Index at RMA concentration 100 nM [3]: 112

COc1cc2c(cc1OC)CN(CCc1ccc(NC(=O)c3cc4c(cc3NC(=O)c3cnc5ccccc5c3)OCO4)cc1)CC2 [compound 9578, Quinoline-3-carboxylic acid (6-{4-[2-(6,7-dimethoxy-3,4-dihydro-1H-isoquinolin-2-yl)-ethyl]-phenylcarbamoyl}-benzo[1,3]dioxoi-5-yl)-amide]
IC50 [1]: 84 nM
IC50 [2, 4]: 900 nM
Potentiation Index at RMA concentration 10 nM [3]: 43
Potentiation Index at RMA concentration 30 nM [3]: 188

COc1cc2c(cc1OC)CN(CCc1ccc(NC(=O)c3ccc([N+](=O)[O-])cc3NC(=O)c3cnc4ccccc4c3)cc1)CC2 [compound 9581, Quinoline-3-carboxylic acid (2-{4-[2-(6,7-dimethoxy-3,4-dihydro-1H-isoquinolin-2-yl)-ethyl]-phenylcarbamoyl}-5-nitro-phenyl)-amide]
IC50 [1]: 15 nM
IC50 [2, 4]: 310 nM
Potentiation Index at RMA concentration 10 nM [3]: 90
Potentiation Index at RMA concentration 30 nM [3]: 300

COc1cc2c(cc1OC)CN(CCc1ccc(NC(=O)c3cc(C)ccc3NC(=O)c3cnc4ccccc4c3)cc1)CC2 [compound 9584, Quinoline-3-carboxylic acid (2,-{4-[2-(6,7-dimethoxy-3,4-dihydro-1H-isoquinolin-2-yl)-ethyl]-phenylcarbamoyl}-4-methyl-phenyl)-amide]
IC50 [1]: 360 nM
IC50 [2, 4]: 8600 nM
Potentiation Index at RMA concentration 10 nM [3]: 2.1
Potentiation Index at RMA concentration 30 nM [3]: 36

COc1cc2c(cc1OC)CN(Cc1ccc(NC(=O)c3ccccc3NC(=O)c3cnc4ccccc4c3)cc1)CC2 [compound 9585, Quinoline-3-carboxylic acid {2-[4-(6,7-dimethoxy-3,4-dihydro-1H-isoquinolin-2-ylmethyl)-phenylcarbamoyl]-phenyl}-amide]
IC50 [1]: 40 nM
IC50 [2, 4]: 9200 nM
Potentiation Index at RMA concentration 10 nM [3]: 1.3
Potentiation Index at RMA concentration 30 nM [3]: 7.2
